# Target: T1, APOL1 (Homo sapiens, UniProt O14791)
# T1 sequence (O14791 1-398 S342G/I384M): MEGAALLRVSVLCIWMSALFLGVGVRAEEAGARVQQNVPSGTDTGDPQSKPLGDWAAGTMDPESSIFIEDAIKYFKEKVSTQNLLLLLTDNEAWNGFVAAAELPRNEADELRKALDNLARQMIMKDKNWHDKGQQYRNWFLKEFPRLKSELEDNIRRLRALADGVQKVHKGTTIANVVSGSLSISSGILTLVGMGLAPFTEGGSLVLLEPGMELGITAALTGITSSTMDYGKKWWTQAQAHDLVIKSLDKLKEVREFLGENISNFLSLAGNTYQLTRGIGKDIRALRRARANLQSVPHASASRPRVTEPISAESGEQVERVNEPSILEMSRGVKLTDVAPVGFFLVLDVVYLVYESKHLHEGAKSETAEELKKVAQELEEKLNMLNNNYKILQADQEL
# Experiment: MultiTox-Fluor Multiplex Cytotoxicity Assay in tet-inducible APOL1 T-REx-HEK293 cells (cell rescue, ratio of dead to live cells)
# Assay type: cell-based
# Settings: tet-inducible transgenic APOL1 T-REx-HEK293 cell lines, 50 ng/mL tet, 24 hours; read-out: IP50 (i.e., IC50 for cell proliferation)
# From the text: The MultiTox-Fluor Multiplex Cytotoxicity Assay is a single-reagent-addition, homogeneous, fluorescence assay that measures the number of live and dead cells simultaneously in culture wells. The assay measures cell viability and cytotoxicity by detecting two distinct protease activities. […] The substrate enters intact cells, where it is cleaved to generate a fluorescent signal proportional to the number of living cells. […] A ratio of dead to live cells is used to normalize data.
# The MultiTox reagent was added to each well and placed back in the incubator for an additional 30 minutes. The plate was read on the EnVision plate reader. A ratio of dead to live cells was used to normalize, and data was imported, analyzed, and fit using Genedata Screener (Basel, Switzerland) software. Data was normalized using percent of control, no tet (100% viability), and 50 ng/mL tet treated (0% viability), and fit using Smart Fit. The reagents, methods, and complete protocol for the MultiTox assay are described below.
# Cells were washed with DPBS and then trypsinized to dissociate from the flask. Media was used to quench the trypsin, cells were then pelleted at 200 g and resuspended in fresh cell assay media (DMEM, 2% Tet-free FBS, 2 mM L-glutamine, 100 Units/mL penicillin-streptomycin). […] The plates were then incubated at room temperature for one hour.
# Tetracycline is needed to induce APOL1 expression. 1 mg/mL tet stock in water was diluted to 250 ng/mL (5×) in cell assay media.
# Compounds were dispensed at 200 nL in DMSO. The final top concentration was 10 μM with a 10 point 3-fold dilution in duplicate in the MultiTox assay.
# 20 μL was transferred from the 5× tet plate to the ARP and mixed, then 5 μL of 5× tet and the compounds were transferred to the cell plate and mixed using the Bravo. The cell plate was placed in the humidified 37° C. 5% CO2 incubator for 24 hours.
# The MultiTox-Fluor Multiplex Cytotoxicity Assay was performed in accordance with the manufacturer's protocol. After cells were incubated with tet and compound for 24 hours, 25 μL of 1× MultiTox reagent was added to each well using the Multidrop dispenser; the plates were placed on a plate shaker (600 rpm) for 2 minutes, then centrifuged briefly and placed back in the 37° C. incubator for 30 minutes. The cell viability (excitation: 400 nm, emission: 486 nm) and cytotoxicity (excitation: 485 nm, emission: 535 nm) were read using the EnVision plate reader. A ratio of dead (cytotoxicity) to live (viability) cells was reported. Data was exported and analyzed in Genedata. Data was normalized using percent of control, no tet (100% viability), and 50 ng/mL tet treated (0% viability), and fit using Smart Fit settings in Genedata.
row,Compound,IC50 [nM]
1,CCc1cc2c(s1)CCO[C@@]21CCN(Cc2cnc(N[C@@H](CO)[C@H](C)O)nc2)[C@@H](C)C1 [Compound 226],< 100
2,C[C@H]1C[C@@]2(CCN1CC(C)(C)O)OCCc1cc(CC(F)F)sc12 [Compound 603],100 to 500
3,CCc1cc2c(s1)CCOC21CCN(Cc2cn(CC3CNC(=O)O3)nn2)CC1 (stereo not shown) [Compound 1118],500 to 1000
4,CCc1cc2c(s1)CCO[C@@]21CCN(Cc2cn(C(CC)C(=O)N3CCOCC3)nn2)[C@@H](C)C1 (stereo partly shown) [Compound 172],100 to 500
5,CCS(=O)(=O)N[C@H]1C[C@@H](CN2CC[C@]3(C[C@@H]2C)OCCc2cc(CC(F)F)sc23)C1 [Compound 553],< 100
6,CCc1cc2c(s1)CCO[C@@]21CCN(C2CCCC2O)[C@@H](C)C1 (stereo partly shown) [Compound 234],< 100
7,Cc1cc(C(=O)N[C@H]2C[C@@H](CN3CC[C@]4(C[C@@H]3C)OCCc3cc(CC(F)F)sc34)C2)on1 [Compound 555],< 100
8,C[C@H]1C[C@@]2(CCN1Cc1cnn(CC(O)CC3(O)CCOC3)c1)OCCc1c2sc(C(F)(F)F)c1CO (stereo partly shown) [Compound 942],< 100
9,C[C@H]1C[C@@]2(CCN1Cc1cccc(F)c1)OCCc1c2sc(Cl)c1CO [Compound 756],100 to 500
10,CCc1cc2c(s1)CCO[C@@]21CCN(Cc2cn([C@H]3C[C@@](C)(O)C3)nn2)[C@@H](C)C1 [Compound 132],100 to 500
11,"COCc1c(Cl)sc2c1CCO[C@@]21CCN(Cc2cnn(CCS(C)(=O)=O)c2)[C@@H](C)C1 [Compound 762, (2′S, 7R)-2-chloro-3-(methoxymethyl)-2′-methyl-1′-[[1-(2-methylsulfonylethyl)pyrazol-4-yl]methyl]spiro[4,5-dihydrothieno[2,3-c]pyran-7,4′-piperidine]]",< 100
12,Cc1nccn1-c1ccc(CN2CC[C@]3(C[C@@H]2C)OCCc2c3sc(Cl)c2CO)cc1 [Compound 717],100 to 500
13,Cc1cc2c(s1)CCO[C@@]21CCN(CC(O)C(N)=O)[C@@H](C)C1 (stereo partly shown) [Compound 501],100 to 500
14,CCc1cc2c(s1)CCO[C@@]21CCN(Cc2cn(C3CC(O)C3)nn2)[C@@H](C)C1 (stereo partly shown) [Compound 152],100 to 500
15,CCc1cc2c(s1)CCO[C@@]21CCN(CC2(O)CCOCC2)[C@@H](C)C1 [Compound 235],100 to 500
16,CCc1cc2c(s1)CCO[C@@]21CCN(C[C@H]2C[C@@H](NC(=O)CC3(O)CCCCC3)C2)[C@@H](C)C1 [Compound 303],< 100
17,C[C@H]1C[C@@]2(CCN1CC1(C)COC1)OCCc1c2sc(Cl)c1CO [Compound 746],500 to 1000
18,C[C@H]1C[C@@]2(CCN1Cc1cnn(CC3CC4(CCOCC4)C(=O)O3)c1)OCCc1c2sc(C(F)(F)F)c1CO (stereo partly shown) [Compound 984],< 100
19,C[C@H]1C[C@@]2(CCN1CC(O)C(N)=O)OCCc1cc(CC(F)F)sc12 (stereo partly shown) [Compound 596],< 100
20,CCc1cc2c(s1)CCO[C@@]21CCN(C[C@H]2C[C@@H](NC(=O)Oc3ccc(Cl)cc3)C2)[C@@H](C)C1 [Compound 382],< 100
21,CC(C)OC[C@@H](O)Cn1cc(CN2CC[C@]3(C[C@@H]2C)OCCc2c3sc(C(F)(F)F)c2CO)cn1 [Compound 956],< 100
22,"C[C@H]1C[C@@]2(CCN1C[C@H](O)C(N)=O)OCCc1cc(CC(F)F)sc12 [Compound 611, (2S)-3-[(2′S, 7R)-2-(2,2-difluoroethyl)-2′-methyl-spiro[4,5-dihydrothieno[2,3-c]pyran-7,4′-piperidine]-1′-yl]-2-hydroxy-propanamide]",< 100
23,"Cc1cn2nc(CN3CC[C@]4(C[C@@H]3C)OCC(O)c3cc(Cl)sc34)cc2c(NC2CC2)n1 (mixture of isomers) [Compound 826, 2-chloro-1′-[[4-(cyclopropylamino)-6-methyl-pyrazolo[1,5-a]pyrazin-2-yl]methyl]-2′-methyl-spiro[4,5-dihydrothieno[2,3-c]pyran-7,4′-piperidine]-4-ol]",< 100
24,CCc1cc2c(s1)CCO[C@@]21CCN(Cc2cn(CC(O)c3c(C)nn(C)c3C)nn2)[C@@H](C)C1 (stereo partly shown) [Compound 189],< 100
25,CCc1cc2c(s1)CCOC21CCN(Cc2ccc3[nH]ncc3c2)CC1 [Compound 1128],< 100
26,CCc1cc2c(s1)CCO[C@@]21CCN(CC2CN(C(=O)CCCOC)C2)[C@@H](C)C1 [Compound 439],< 100

row,Compound,IC50 [nM]
1,CCc1cc2c(s1)CCO[C@@]21CCN(Cc2cn(CC3CCC4(CC3)COC4)nn2)[C@@H](C)C1 [Compound 78],100 to 500
2,CCc1cc2c(s1)CCO[C@@]21CCN(CC2CN(S(=O)(=O)c3cnn4c3OCCC4)C2)[C@@H](C)C1 [Compound 495],500 to 1000
3,C[C@H]1C[C@@]2(CCN1Cc1cnn(CC3CC4(CCC4)C(=O)O3)c1)OCCc1c2sc(C(F)(F)F)c1CO (stereo partly shown) [Compound 982],< 100
4,C[C@H]1C[C@@]2(CCN1CCCn1cccn1)OCCc1cc(Cl)sc12 [Compound 642],500 to 1000
5,C[C@H]1C[C@@]2(CCN1C1CCCC1O)OCCc1cc(CC(F)F)sc12 (stereo partly shown) [Compound 595],< 100
6,C[C@H]1C[C@@]2(CCN1C[C@H]1C[C@@H](NC(=O)C3CC(F)(F)C3)C1)OCCc1cc(CC(F)F)sc12 [Compound 550],< 100
7,C[C@H]1C[C@@]2(CCN1Cc1cnn(CC3(O)CC(C#N)C3)c1)OCCc1c2sc(C(F)(F)F)c1CO (stereo partly shown) [Compound 954],< 100
8,C[C@H]1C[C@@]2(CCN1Cc1cn(C)nn1)OC[C@H](O)c1cc(Cl)sc12 [Compound 813],100 to 500
9,C[C@H]1C[C@@]2(CCN1Cc1cnn(C[C@H](O)CC#N)c1)OCCc1c2sc(C(F)(F)F)c1CO [Compound 918],< 100
10,C[C@H]1C[C@@]2(CCN1Cc1cnn(CC(O)CC(C)(O)C3CC3)c1)OCCc1c2sc(C(F)(F)F)c1CO (stereo partly shown) [Compound 938],< 100
11,COCCc1ncc(CN2CC[C@]3(C[C@@H]2C)OCCc2c3sc(Cl)c2CO)cn1 [Compound 745],100 to 500
12,CCc1cc2c(s1)CCO[C@@]21CCN(C[C@H]2C[C@@H](NC(=O)Oc3ccc(OC)cc3)C2)[C@@H](C)C1 [Compound 379],< 100
13,CCc1ncc(CN2CC[C@]3(C[C@@H]2C)OCCc2c3sc(Cl)c2CO)cn1 [Compound 733],100 to 500
14,C[C@H]1C[C@@]2(CCN1Cc1cn(CC(C)(CO)CO)nn1)OCCc1cc(Cl)sc12 [Compound 629],100 to 500
15,CCc1cc2c(s1)CCO[C@@]21CCN(CC2CN(C(=O)CO)C2)[C@@H](C)C1 [Compound 452],100 to 500
16,C[C@H]1C[C@@]2(CCN1Cc1cnn(CC(O)C(N)=O)c1)OCCc1c2sc(C(F)(F)F)c1CO (stereo partly shown) [Compound 932],< 100
17,C[C@H]1C[C@@]2(CCN1C[C@H]1C[C@@H](NS(=O)(=O)C3CC3)C1)OCCc1cc(CC(F)F)sc12 [Compound 552],< 100
18,C[C@H]1C[C@@]2(CCN1Cc1cnn(CCS(C)(=O)=O)c1)OC[C@@](O)(C(F)F)c1cc(Cl)sc12 [Compound 834],< 100
19,CCc1cc2c(s1)CCO[C@@]21CCN(Cc2cn([C@H]3CCN(S(C)(=O)=O)C3)nn2)[C@@H](C)C1 [Compound 27],< 100
20,CCc1cc2c(s1)CCO[C@@]21CCN(Cc2cn(Cc3nc(C)cc(C)n3)nn2)[C@@H](C)C1 [Compound 53],500 to 1000
21,CCc1cc2c(s1)CCOC21CCN(Cc2cn(CC(CO)C(C)C)nn2)C(C)C1 (stereo not shown) [Compound 107],< 100
22,CCc1cc2c(s1)CCO[C@@]21CCN(CC2CN(C(=O)Cc3sc(O)nc3O)C2)[C@@H](C)C1 [Compound 488],< 100
23,CCc1cc2c(s1)CCO[C@@]21CCN(Cc2cn(CC3CCOC3)nn2)[C@@H](C)C1 (stereo partly shown) [Compound 131],100 to 500
24,C[C@H]1C[C@@]2(CCN1Cc1cnn(CCC(N)=O)c1)OC[C@@H](O)c1cc(C(F)(F)F)sc12 [Compound 926],< 100
25,C[C@H]1C[C@@]2(CCN1CC(=O)N(C)C)OCCc1cc(CC(F)F)sc12 [Compound 624],500 to 1000
26,C[C@H]1C[C@@]2(CCN1Cc1cn(CC(C)(CO)CO)nn1)OCCc1cc(CC(F)F)sc12 [Compound 546],< 100

# Source: patent US20250171459A1, “2-METHYL-4',5'-DIHYDROSPIRO[PIPERIDINE-4,7'-THIENO[2,3-C]PYRAN] DERIVATIVES AS INHIBITORS OF APOL1 AND METHODS OF USING SAME” (Vertex Pharmaceuticals Incorporated, priority 2022, published 2025)
